Source: patent publication US5683987A, “Therapeutic oligonucleotides targeting the human MDR1 and MRP genes” (The Board of Regents of the University of Nebraska, priority 1995, dated 1997)

Assays:
8226/Dox cells = test: Sensitization of 8226/Dox cells to VCR by MDR-aptameric oligonucleotides; type: cell-based, human; conditions: compared to media control
[1] = test system: 8226/Dox human myeloma cells; test: Sensitization of 8226/Dox cells to Vincristine by MDR-oligos in 5% oxygen; type: cell-based; conditions: 5% oxygen
Protocol: (§1) As shown in this example, several oligos which target the MDR1 gene are able to sensitize multidrug-resistant cell lines to the cytotoxic effects of the chemotherapeutic agent Vincristine. Tumor cells were treated in vitro with 10 μM of the indicated oligo for 4 days at 37° C., then counted, dispensed into individual tubes, and pulsed with Vincristine at various doses (serial 5-fold dilutions) for 3 hrs. The cells were then washed and seeded into 96-well plates (quadruplicate replicates) for pulsing with tritiated thymidine 3 days later. Cells were harvested the next day (=4th day after drug treatment). Tritiated thymidine uptake was analyzed by liquid scintillation.

[2] = test system: CEM/VLB10 human leukemia cells; test: Sensitization of CEM/VLB10 cells to Vincristine by MDR-oligos in 5% oxygen; type: cell-based; conditions: 5% oxygen
Protocol: as §1

[3] = test system: 8226/Dox human myeloma cells; test: Sensitivity of 8226/Dox cells to Vincristine with increasing time after Vincristine exposure; type: cell-based; conditions: for Relative Sensitization (fold increase) Day 5: Day 5 after Vincristine exposure; for Relative Sensitization (fold increase) Day 7: Day 7 after Vincristine exposure; for Relative Sensitization (fold increase) Day 9: Day 9 after Vincristine exposure
Protocol: As shown in this example, several oligos which target the MDR1 gene are able to sensitize multidrug-resistant cell lines to the cytotoxic effects of the chemotherapeutic agent Vincristine. […] The cells were then washed and seeded into 96-well plates (quadruplicate replicates) for pulsing with tritiated thymidine 3 days later. Cells were harvested the next day (=4th day after drug treatment). Tritiated thymidine uptake was analyzed by liquid scintillation.
As shown in this example, it was determined that there was an increase in sensitivity of multidrug-resistant 8226/Dox human myeloma cells to Vincristine with increasing time of incubation following initial exposure to Vincristine. The experimental conditions were identical to those utilized in obtaining the data shown in Table 7, except that the present experiment had two additional time points.

[4] = Vincristine IC50 after 4 days with 10 μM oligo, read-out: IC50 dose

“MDR-APT-4: MDR-aptameric oligonucleotide, SEQ ID NO 91: ACTCGCCTCCCACGTAGTGCTT (ACTCGCCTCCCACGTAGTGCTT; chemistry not given here)” was tested, and the “Fold Increase in Drug Sensitization” value (8226/Dox cells) was > 40,000 fold.

“PA(1)mdr: SEQ ID NO 40: GCGGGAGGTGAGTCACTGTCTCC (GCGGGAGGTGAGTCACTGTCTCC; chemistry not given here)” was tested, and the IC50 [1, 4] was 28 nM, the “Relative sensitization (fold increase)” value ([1]; to Vincristine, 10 μM oligo) was 16 fold increase and the IC50 [2, 4] was 190 nM. For the same substance, the “Relative sensitization (fold increase)” value ([2]; to Vincristine, 10 μM oligo) was 53 fold increase, the “Relative Sensitization (fold increase) Day 5” value ([3]; oligo 2 μM) was 2.3 fold increase and the “Relative Sensitization (fold increase) Day 7” value ([3]; oligo 2 μM) was 27 fold increase. For the same substance, the “Relative Sensitization (fold increase) Day 9” value ([3]; oligo 2 μM) was 1309 fold increase, the “Relative Sensitization (fold increase) Day 5” value ([3]; oligo 10 μM) was 6.3 fold increase and the “Relative Sensitization (fold increase) Day 7” value ([3]; oligo 10 μM) was 28 fold increase. For the same substance, the “Relative Sensitization (fold increase) Day 9” value ([3]; oligo 10 μM) was 550 fold increase.

In the case of “MDR-APT-3: MDR-aptameric oligonucleotide, SEQ ID NO 90: CGGTCCGTTA TGTTCCTG (CGGTCCGTTATGTTCCTG; chemistry not given here)”, the “Fold Increase in Drug Sensitization” value (8226/Dox cells) is reported as 5,714 fold.

With “MDR-APT-2: MDR-aptameric oligonucleotide, SEQ ID NO 89: TTCGCCTGATTTCCGCCTCCCGTCT (TTCGCCTGATTTCCGCCTCCCGTCT; chemistry not given here)” the “Fold Increase in Drug Sensitization” value (8226/Dox cells) was 20,000 fold.

With “MDR-APT-1: MDR-aptameric oligonucleotide, SEQ ID NO 88: CCCCTGGCGTTACCTCCTCGTTTCT (CCCCTGGCGTTACCTCCTCGTTTCT; chemistry not given here)” the “Fold Increase in Drug Sensitization” value (8226/Dox cells) was 40,000 fold.
